Literature values as cited in patent publication US20060040003A1, “Dietary supplement for supressing appetite, enhancing and extending satiety, improving glycemic control, and stimulant free” (priority 2004, published 2006).

Target: T1, plasma albumin (Homo sapiens, UniProt P02768)
T1 construct: host or cells: blood plasma (circulation)
T1 sequence (P02768 25-609): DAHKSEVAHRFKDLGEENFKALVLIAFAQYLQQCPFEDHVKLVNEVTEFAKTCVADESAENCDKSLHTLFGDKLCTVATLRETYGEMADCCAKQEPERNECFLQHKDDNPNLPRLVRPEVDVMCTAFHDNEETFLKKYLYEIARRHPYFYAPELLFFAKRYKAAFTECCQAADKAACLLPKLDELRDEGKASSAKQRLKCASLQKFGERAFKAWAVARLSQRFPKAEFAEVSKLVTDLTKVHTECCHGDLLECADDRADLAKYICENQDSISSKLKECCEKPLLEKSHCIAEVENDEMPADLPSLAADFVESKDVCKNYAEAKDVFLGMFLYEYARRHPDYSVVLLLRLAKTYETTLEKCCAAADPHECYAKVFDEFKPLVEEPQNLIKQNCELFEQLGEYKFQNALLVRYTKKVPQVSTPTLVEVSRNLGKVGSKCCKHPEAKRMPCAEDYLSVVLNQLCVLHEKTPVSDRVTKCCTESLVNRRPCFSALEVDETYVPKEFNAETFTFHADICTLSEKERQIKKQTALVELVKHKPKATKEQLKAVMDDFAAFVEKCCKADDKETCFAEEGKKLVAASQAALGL

Q: Which “circulating in the blood as free tryptophane” value does the source give for `N[C@@H](Cc1c[nH]c2ccccc12)C(=O)O` [tryptophane] here?
A: Its value is 20%.
